Measured values from PubChem BioAssay (NCI).
Where “and” joins values, the source holds several entries; their conditions need not be identical. Equal values may be shown once.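 Growth conditions: 96-well plates. Treatment: test compound, 48 hours, 5 concentrations. Analysis: linear interpolation between bracketing concentrations; unreached endpoints set to highest concentration. At the GI50, growth is halved. TGI: concentration producing complete growth inhibition.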

How the values were obtained:
Test in all cases: DTP human tumour cell line panel, 48 h
[1] = tested on: CAKI-1 renal
[2] = tested on: HCT-116 colon
[3] = tested on: HOP-62 NSCLC
[4] = tested on: K-562 leukemia
[5] = tested on: MALME-3M melanoma
[6] = tested on: OVCAR-4 ovarian
[7] = tested on: OVCAR-5 ovarian
[8] = tested on: SK-MEL-28 melanoma
[9] = tested on: U251 CNS
[10] = tested on: UACC-257 melanoma

SMILES | TGI [1] | TGI [2] | TGI [3] | TGI [4] | TGI [5] | TGI [6] | TGI [7] | TGI [8] | TGI [9] | TGI [10] | GI50 [1] | GI50 [2] | GI50 [3] | GI50 [4] | GI50 [5] | GI50 [6] | GI50 [7] | GI50 [8] | GI50 [9] | GI50 [10]
Cc1cccc2c1C/C(=C1\CCc3c(C)cccc31)C2=O | > 100 µM | > 100 µM | > 100 µM | > 100 µM | > 100 µM | > 100 µM | > 100 µM | > 100 µM | > 100 µM | > 100 µM |  |  |  |  |  |  |  |  |  | 
C/C(=C\CC[C@]1(C)OC(C)(C)OC1CC/C(C)=C/CO[Si](c1ccccc1)(c1ccccc1)C(C)(C)C)CC/C=C/CO[Si](C)(C)C(C)(C)C (some centres undefined) | > 100 µM | > 100 µM | > 100 µM | > 100 µM | > 100 µM | > 100 µM | > 100 µM | > 100 µM | > 100 µM | > 100 µM |  |  |  |  |  |  |  |  |  | 
Cc1ccc(S(=O)(=O)Nc2nc3ccccc3nc2Nc2ccc3nsnc3c2)cc1 | > 100 µM | 15.4 µM and > 100 µM | 35.6 µM and > 100 µM | > 100 µM |  | > 100 µM | > 100 µM | > 100 µM | > 100 µM | 27.7 µM and > 100 µM | 3.36 µM and 2.33 µM | 3.52 µM | 5.36 µM and 5.68 µM | 3.7 µM and 2.82 µM | 2.18 µM and 1.34 µM | 3.13 µM | 17.4 µM and > 81.2 µM | 4.38 µM and 4.11 µM | 3.26 µM and 3.65 µM | 3.56 µM and 2.87 µM
OCCNCCNc1c2ccccc2nc2oc3ccccc3c12 | 56.4 µM | 16.2 µM | 20.2 µM | > 100 µM | 41.8 µM | 34.6 µM | 71.6 µM | 26.5 µM | 30.2 µM | 33.2 µM | 11.9 µM | 4.61 µM | 6.62 µM | 33.9 µM | 11.4 µM | 10.2 µM | 24.2 µM | 12.1 µM | 12.5 µM | 15.6 µM
Oc1ccc(N=Nc2ccc(N=Nc3ccccc3)cc2)cc1 | 4.12 µM | 10.1 µM | 9.05 µM | 12.7 µM | 25.7 µM | 32.9 µM | 17.3 µM | 3.64 µM | 26.9 µM | 17 µM | 1.45 µM | 1.99 µM | 2.7 µM | 0.615 µM | 11.6 µM | 8.43 µM | 4.16 µM | 1.7 µM | 10.4 µM | 4.23 µM
CCCN(CCC)C(=O)[C@H](CC)[C@@H]1CC[C@@H](C)[C@@H]([C@H](C)[C@@H](O)[C@@H](C)C(=O)[C@H](CC)C2O[C@]3(C=C[C@@H](O)[C@]4(CC[C@@](C)([C@H]5CC[C@](O)(CC)[C@H](C)O5)O4)O3)[C@H](C)C[C@@H]2C)O1 (some centres undefined) | 8.7 µM | 5.98 µM | 13.6 µM | 13 µM | 3.71 µM | 13.2 µM | 5.27 µM | 17.9 µM | 9.87 µM | 9.83 µM | 1.95 µM | 2.16 µM | 3.33 µM | 2.68 µM | 1.72 µM | 2.95 µM | 2.09 µM | 4.5 µM | 2.87 µM | 2.84 µM
